The record followed here is US8466311B2, “Neuroprotective compositions and methods” (Sanford-Burnham Medical Research Institute, priority 2006, dated 2013).

The target of assay [1] is T1, bovine serum albumin (BSA) (Bos taurus, UniProt P02769).
T1 construct: purchased WAKO Chemicals Inc. (Tokyo, Japan) or Sigma (St. Louis, Mo.)
Description: Adduct formation with free cysteine of BSA (streptavidin blot). Type of assay: binding. The note with it: NEM pretreatment.
Description: We tested whether the free cysteine of bovine serum albumin (BSA) could form an adduct with NEPP compounds. If carbon #11 on the NEPP compounds binds to this free cysteine of BSA, then pretreatment with N-ethylmaleimide (NEM), in irreversible thiol alkylating agent, would abolish this binding. […] With streptavidin as a probe, we could then detect proteins bound to NEPP6-biotin. In order to study thiols as targets of NEPP binding, BSA (1 μg per lane) was incubated with various concentrations (0-1000 μM) of N-ethylmaleimide (NEM) for 30 minutes at room temperature. Vehicle or NEPP6-biotin (10 μM) in phosphate-buffered saline (PBS) was added and the mixture was incubated at room temperature for 5 h, subjected to sodium dodecyl sulfate polyacrylamide gel electrophoresis (SDS-PAGE), and probed with peroxidase-conjugated streptavidin. The gel was also stained with Coomassie brilliant blue.

The test system of another assay is Nrf2. Description: Intracellular distribution of Nrf2 protein in COS7 cells (immunofluorescence). Type of assay: cell-based. The note with it: 10 μM CA. On the procedure:
Immunocytochemistry. Cultures were fixed with 3% paraformaldehyde at room temperature for 20 min. After three washes in PBS, the cells were permeabilized with 0.3% Triton X-100 for 5 min. After three additional washes in PBS, the cells were incubated at 4° C. overnight with primary antibodies. They were then washed three times in PBS containing 0.2% Tween 20 (PBS-T), and next incubated with secondary antibodies for 1 h at room temperature. Thereafter, the cells were again washed, and their nuclei stained with Hoechst 33,258 (5 μg/ml) or with DAPI (1 μg/ml) for 5 min. Stained preparations were mounted and examined by epifluorescence microscopy. The following primary antibodies were used: anti-Nrf2 antibody, anti-MAP2 and anti-NeuN antibodies to identify neurons (dendrites and nuclei, respectively), and anti-S100β antibody to identify astrocytes. As secondary antibodies, we used FITC-conjugated anti-mouse IgG, rhodamine-conjugated anti-mouse IgG, or rhodamine-conjugated streptavidin.
After binding of the electrophilic quinone-form of CA to Keap1 protein, activation of the Keap1/Nrf2 pathway requires nuclear translocation of Nrf2 (Talalay, Biofactors 12:5-11, 2000; Padmanabham et al., Mol. Cell 21:689-700, 2006; Itoh et al., Free Radic. Biol. Med. 36:1208-1213, 2004). Thus, we next examined the intracellular distribution of Nrf2 protein in COS7 cells by immunofluorescence.

The subject of the next assay is NFAT-binding site. Description: Enhancer element luciferase reporter p3xNFATluc. In kind it is cell-based. The note with it: NEPP11 2 μM. As for the experimental part: (§1) Because the E1 and E2 regions also contain other enhancer elements, we tested the effects of NEPP11 (2 μM) on the expression of luciferase activity derived from these elements, including the cAMP-responsive element (CRE; p3xCREluc), AP-1 binding site (p3xAP1luc), NF-κB binding site (p3xNF-κBluc), NFAT-binding site (p3xNFATluc), ETS-binding site (p3xETSluc), and MEF2-binding site (p3xMEF2luc).

The subject of another assay is ARE probe. The experiment in a line: EMSA with biotin-labeled ARE probe, HT22 nuclear lysates. Type of assay: cell-based. Conditions: HT22 cells, NEPP11 1 μM, 8 h. On the procedure: Electrophoretic mobility shift assays (EMSAs). Double-stranded antioxidant-responsive elements (AREs) were labeled by using a biotin 3′-end DNA labeling kit (Pierce). Nuclear lysates were incubated with the labeled probe for 20 min at room temperature, resolved on an 8% native polyacrylamide gel, and transferred to Hybond-N^+ (Amersham Pharmacia). Signals were visualized with peroxidase-conjugated streptavidin (Pierce).
To confirm that NEPP11 leads to an increase in transcription factors, including Nrf2, that bind to the ARE, we performed EMSAs. HT22 cells were incubated for 8 h with vehicle or NEPP11 (1 μM). EMSAs were performed by using 10 μg of nuclear lysates per lane and a biotin-labeled ARE probe. In one lane, anti-Nrf2 antibody (100×) was added to supershift Nrf2 protein binding to ARE probe. In another lane, an excess amount of non-labeled probe was added to the sample to compete out the labeled ARE probe from binding to proteins in the nuclear lysates. […] The band representing the labeled ARE probe was shifted in the presence of control lysates, indicating binding of endogenous transcription factors to the ARE. […] In contrast, the band was totally abrogated in the presence of excess unlabeled probe. […]

Assay [2] has as its system thioredoxin and glutaredoxin. Description: Expression of Trx and Grx genes in cortical cultures (RT-PCR). Also noted: expression of the Trx and Grx genes: dose or concentration left out as unconfirmed. Type of assay: cell-based, rat. On the procedure:
One caveat to the mechanism of NEPP and other electrophilic compounds acting at the level of Keap1 to induce HO-1 transcription is that NEPP could potentially react indiscriminately with other thiol-containing compounds in cells. To approach this question, we assessed cellular glutathione (GSH) levels to determine whether NEPP11 would affect this abundant antioxidant thiol. Nepp11 or N-ethylmaleimide (NEM) was added at t=0 and levels of total GSH were measured at the indicated times. GSH content of control cortical cultures (set arbitrarily at 100%) was 46.8±4.5 nmol/mg protein. […] In fact, this scenario seems likely, because the Keap1/Nrf2 pathway regulates the expression of γ-GCL in addition to HO-1 (Itoh et al., Mol. Cell. Biol. 24:36-45, 2004). Besides GSH, cells have another major reduction pathway representing the thioredoxin-glutaredoxin system.
Lack of Effect of NEPP Compounds on Expression of Trx and Grx Genes. […]

For the next assay, the system named is HO-1 protein. The experiment in a line: Induction of HO-1 protein in HT22 cells (Western blot). In kind it is cell-based. The note with it: 24 h, at NEPP concentration that prevented neuronal cell death.
In the next assay the test system is ETS-binding site. Description: Enhancer element luciferase reporter p3xETSluc. Type of assay: cell-based. The note with it: NEPP11 2 μM. As for the experimental part: as §1

T1 sequence (P02769 25-607): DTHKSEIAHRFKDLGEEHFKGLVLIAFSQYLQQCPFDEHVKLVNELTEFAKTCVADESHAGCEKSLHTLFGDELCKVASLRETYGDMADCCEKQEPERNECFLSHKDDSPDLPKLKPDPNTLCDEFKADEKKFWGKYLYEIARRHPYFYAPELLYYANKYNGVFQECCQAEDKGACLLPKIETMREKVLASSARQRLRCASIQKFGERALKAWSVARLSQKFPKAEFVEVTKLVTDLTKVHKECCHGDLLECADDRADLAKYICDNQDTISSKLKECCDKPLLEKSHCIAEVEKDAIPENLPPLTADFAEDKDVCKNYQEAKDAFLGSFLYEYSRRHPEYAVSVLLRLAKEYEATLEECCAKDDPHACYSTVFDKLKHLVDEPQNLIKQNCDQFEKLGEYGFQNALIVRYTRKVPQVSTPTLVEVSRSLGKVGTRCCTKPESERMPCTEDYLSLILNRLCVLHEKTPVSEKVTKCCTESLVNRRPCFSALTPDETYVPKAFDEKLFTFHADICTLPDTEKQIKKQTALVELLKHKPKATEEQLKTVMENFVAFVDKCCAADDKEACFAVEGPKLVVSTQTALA
Description for HO-1 protein: HT22 cells (Satoh et al., Eur. J. Neurosci. 17:2249-2255, 2003; Satoh et al., J. Neurochem. 77:50-62, 2001; Sagara et al., J. Biol. Chem. 277:36204-36215, 2002) and primary cortical neurons (Bonfoco et al., Proc. Natl. Acad. Sci. USA 92:7162-7166, 1995) were cultured as described.
These assays were performed as described (Gu et al., Science 297:1186-1190, 2002) by using the following antibodies: anti-HO-1 (SPA895, 1:1000, Santa Cruz Biotechnology), anti-Keap1 (1:100, Santa Cruz Biotechnology), or anti-actin (1:5,000, Oncogene Research Products, San Diego).
Thereafter, cell lysates (10 μg per lane) were subjected to SDS-PAGE and probed with anti-HO-1 or anti-β-actin.

Take `CC(C)c1cc2c(c(O)c1O)[C@@]1(C(=O)O)CCCC(C)(C)[C@@H]1CC2` [CA, carnosic acid]: the “BSA adduct signal after pretreatment with NEM” value in assay [1] is reported as “depressed the streptavidin signal in a dose-dependent manner”. Moreover, the “localization of Nrf2 protein” value in the assay on Nrf2 is given as “translocated into the nucleus”.
Turning to `COC(=O)CCCCC/C=C1/C(=O)C=C[C@H]1CCCCCCc1ccc(C)cc1` [NEPP11], the “activity of p3xNFATluc” value with NFAT-binding site is “slightly depressed”. For the same compound, in the assay on ARE probe, the “shifted ARE probe band intensity” value is on record as “significant increase in the intensity of this band”. Moreover, the “expression of thioredoxin or glutaredoxin” value in assay [2] (NEPP11 1 μM) is on record as “did not significantly affect”. The “expression of the Trx and Grx genes” value in assay [2] (NEPP11, 24 hr, RT-PCR) is “did not significantly affect”. Further, the “HO-1 protein levels over baseline” value in the assay with HO-1 protein is “approximately five-fold”. Besides, in the assay with ETS-binding site, the “activity of p3xETSluc” value is “slightly depressed”.
